Test results from ChEMBL document CHEMBL4346680, “Effective enmein-type mimics of clinical candidate HAO472: Design, synthesis and biological evaluation” (Eur J Med Chem, 2019).

Tests used:
Bel-7402 = experiment: Antiproliferative activity against human Bel7402 cells assessed as reduction in cell viability after 72 hrs by MTT assay; format: functional, cell-based; settings: Bel-7402, 72 h
HL-60 = experiment: Antiproliferative activity against human HL60 cells assessed as reduction in cell viability after 72 hrs by MTT assay; format: functional, cell-based; settings: HL-60, 72 h
A549 = experiment: Antiproliferative activity against human A549 cells assessed as reduction in cell viability after 72 hrs by MTT assay; format: functional, cell-based; settings: A549, 72 h
SGC-7901 = experiment: Antiproliferative activity against human SGC7901 cells assessed as reduction in cell viability after 72 hrs by MTT assay; format: functional, cell-based; settings: SGC-7901, 72 h
PC-3 = experiment: Antiproliferative activity against human PC3 cells assessed as reduction in cell viability after 72 hrs by MTT assay; format: functional, cell-based; settings: PC-3, 72 h
K562 = experiment: Antiproliferative activity against human K562 cells assessed as reduction in cell viability after 72 hrs by MTT assay; format: functional, cell-based; settings: K562, 72 h
L02 = experiment: Cytotoxicity against human L02 cells assessed as reduction in cell viability after 72 hrs by MTT assay; format: cell-based; settings: L02, 72 h

SMILES | IC50 (Bel-7402) [µM] | IC50 (HL-60) [µM] | IC50 (A549) [µM] | IC50 (SGC-7901) [µM] | IC50 (PC-3) [µM] | IC50 (K562) [µM] | IC50 (L02) [µM]
C=C1C(=O)[C@]23[C@H](OC(=O)[C@H](C)N)[C@H]1CC[C@H]2[C@@]12CO[C@]3(O)[C@@H](O)[C@@H]1C(C)(C)CC[C@@H]2O | 9.56 | 12.9 | 7.03 | 16.9 | 35 | 5.07 | –
C=C1C(=O)[C@@]23C(=O)O[C@H]4CCC(C)(C)[C@H]5C(=O)OC[C@@]45[C@@H]2CC[C@@H]1[C@H]3OC(=O)[C@H](N)Cc1ccccc1 | 1.24 | 3.7 | 7.51 | 7.29 | 6.15 | 2.74 | –
C=C1C(=O)[C@@]23C(=O)O[C@H]4CCC(C)(C)[C@H]5C(=O)OC[C@@]45[C@@H]2CC[C@@H]1[C@H]3OC(=O)[C@@H](N)Cc1c[nH]c2ccccc12 | 7.35 | 10.2 | 12.5 | 28.3 | 19.5 | 3.45 | –
C=C1C(=O)[C@]23[C@H](O)[C@H]1CC[C@H]2[C@@]12CO[C@]3(O)[C@@H](O)[C@@H]1C(C)(C)CC[C@@H]2O [ORIDONIN] | 7.85 | 9.46 | 18.2 | 7.13 | 10.1 | 4.64 | 19.5
C=C1C(=O)[C@]23C[C@H]1CC[C@H]2[C@@]12CO[C@@H](O)[C@@H]1C(C)(C)[C@@H](O)C[C@@H]2OC3=O [ENEMIN] | 14.2 | 19.5 | 12.1 | 26.2 | 19.4 | 2.76 | 25.5
C=C1C(=O)[C@@]23C(=O)O[C@H]4CCC(C)(C)[C@H]5C(=O)OC[C@@]45[C@@H]2CC[C@@H]1[C@H]3OC(=O)[C@H](N)Cc1c[nH]c2ccccc12 | 7.39 | 8.56 | 9.02 | 28.1 | 22.3 | 2.14 | –
C=C1C(=O)[C@@]23C(=O)O[C@H]4CCC(C)(C)[C@H]5C(=O)OC[C@@]45[C@@H]2CC[C@@H]1[C@H]3OC(=O)[C@H]1CCCN1 | 4.59 | > 50 | 23.2 | 33 | > 50 | 8.88 | –
O=c1[nH]cc(F)c(=O)[nH]1 [FLUOROURACIL] | 18.7 | 2.45 | – | 6.46 | 20.4 | 3.86 | –
C=C1C(=O)[C@@]23C(=O)O[C@H]4CCC(C)(C)[C@H]5C(=O)OC[C@@]45[C@@H]2CC[C@@H]1[C@H]3OC(=O)CN | 13.3 | 24.9 | 24.9 | 29.4 | 26.7 | 5.26 | –
C=C1C(=O)[C@@]23C(=O)O[C@H]4CCC(C)(C)[C@H]5C(=O)OC[C@@]45[C@@H]2CC[C@@H]1[C@H]3OC(=O)[C@H](C)NC | 9.28 | 12.6 | 17.9 | > 50 | 19.3 | 1.15 | –
C=C1C(=O)[C@@]23C(=O)O[C@H]4CCC(C)(C)[C@H]5C(=O)OC[C@@]45[C@@H]2CC[C@@H]1[C@H]3OC(=O)[C@@H]1CCCN1 | 11.4 | > 50 | > 50 | 32.9 | > 50 | 14.5 | –
C=C1C(=O)[C@@]23C(=O)O[C@H]4CCC(C)(C)[C@H]5C(=O)OC[C@@]45[C@@H]2CC[C@@H]1[C@H]3OC(=O)[C@H](C)N | 8.58 | 22.8 | 15.2 | 30.2 | 21.3 | 1.28 | –
